Results: patent US5814612A, “Retinol derivatives and uses thereof” (priority 1992, dated 1998)

Columns and labels:
[1] = Chemical stability of P3; assay type: physicochemical
[2] = test system: thymocytes; assay: Viable and blast cell counts of thymocytes (trypan blue); assay type: cell-based, BALB/c mouse
Description: FIG. 14C: BALB/c thymocytes (3×10^6 /ml) were activated with anti-CD3e mAb as FIG. 1A. The total number of viable cells was determined by counting trypan blue-excluding cells, and those of blast cells by counting viable large cells in six replicate wells. Because of the relatively low cell density required in the culture (see FIG. 14A), the numbers reported for blast cells are best estimates.
Thymuses of 3 to 6-week-old BALB/c mice were teased in serum-free RPMI medium supplemented with 1% BSA, 10^-6 M linoleic acid and antibiotics. Depletion of accessory cells was achieved by two cycles of complement-dependent lysis with a mixture of anti-IA^d (5 μg/ml) and anti-IE^d (1:500 diluted ascites fluid). Briefly, cells were incubated on ice for 30 minutes with Ia antibodies, spun down, resuspended in 1:40 diluted rabbit complement, and incubated at 37° C. for 45 minutes. Incubations and two subsequent washes were carried out with RPMI medium containing 1% BSA. Cell viability was evaluated by trypan blue dye exclusion. To determine the extent of depletion of accessory cells, samples were stained with FITC-conjugated anti-Fc receptor antibody and analyzed by flow cytometry on a FACScan instrument (Becton Dickinson). No FcR-bearing cells were detected by this procedure.

[3] = test system: Raji; assay: Retinol metabolism, Raji; assay type: in vitro ADME, human
Description: (§1) Legend: 2.5×10^6 cells were grown overnight in 5 ml RPMI/10% FBS. The FBS was preincubated at room temperature with 14.4 uCi [^3 H] retinol (NEN) for 4h. The cell pellet was washed twice with PBS. The retinoid were extracted according to MClean et al. 90 and separated on an analytical c18 reverse phase column according to FIG. 7. The DPM were determined using an on-line scintillation counter.

[4] = test system: EL-4; assay: Retinol metabolism, EL-4; assay type: in vitro ADME, mouse
Description: as §1

[5] = test system: SKL3; assay: Retinol metabolism, SKL3; assay type: in vitro ADME, human
Description: as §1

[6] = test system: thymocytes; assay: Proliferation of Con A stimulated thymocytes in serum-free ITLB medium; assay type: cell-based, BALB/c mouse; conditions: 3×10^-6 M retinol, Con A 0.5 μg/ml
Description: Purified thymocytes (5×10^5 cells/well) were stimulated by TCR crosslinking with immobilized anti-CD3e antibody (FIG. 15A) or 0.4 μg/ml Con A (FIG. 15B) in serum-free ITLB medium. The indicated amounts of retinoids were added either once at the beginning of the experiment (marked as "1×") or every 12 hours thereafter (marked as "6×"). DNA synthesis was measured after 72 hours by tritiated thymidine uptake as described.
Thymuses of 3 to 6-week-old BALB/c mice were teased in serum-free RPMI medium supplemented with 1% BSA, 10^-6 M linoleic acid and antibiotics. […] Cell viability was evaluated by trypan blue dye exclusion. To determine the extent of depletion of accessory cells, samples were stained with FITC-conjugated anti-Fc receptor antibody and analyzed by flow cytometry on a FACScan instrument (Becton Dickinson). No FcR-bearing cells were detected by this procedure.
Cells were cultured in serum-free medium, referred to as ITLB, containing RPMI 1640 supplemented with 8×10^-7 M insulin (5 μg/ml), 7×10^-8 M transferrin (5 μg/ml), 2×10^-6 M linoleic acid, 2×10^-6 M delipidated BSA (0.12 mg/ml), 2 mM L-glutamine, 1 mM sodium pyruvate and antibiotics. […] The optimal concentration for stimulation of T cells was determined for each batch of anti-CD3 mAb and Con A. The optimal range of Con A was particularly narrow in serum-free medium (0.5-0.2 μg/ml) and varied with the cell density used. […]

Ester (% of taken up retinol) ([3]; 4°) [%]	P3 (% of taken up retinol) ([3]; 4°) [%]	Total cts. ([3]; 4°)	Ester (% of taken up retinol) ([3]; 37°) [%]	P3 (% of taken up retinol) ([3]; 37°) [%]	Total cts. ([3]; 37°)	Ester (% of taken up retinol) [4] [%]	P3 (% of taken up retinol) [4] [%]	Total cts. [4]	Ester (% of taken up retinol) [5] [%]	P3 (% of taken up retinol) [5] [%]	Total cts. [5]	SMILES	chemical stability [1]	T cell activation / blast transformation by agent alone ([2]; alone)	viability of thymocyte cultures ([2]; retinol by itself)	Con A stimulated thymocyte proliferation [6]
–	–	–	–	–	–	–	–	–	–	–	–	CC(C=CC=C(C)C(O)CO)=CC=C1C(C)=CCCC1(C)C (stereo not shown) [14HRR, 14-hydroxy-4,14-retro-retinol]	unstable in chloroform and does not survive an acid extraction step	–	–	–
0	0	2.5 × 10^5 cts.	14	3	4.0 × 10^5 cts.	44	5	2.8 × 10^5 cts.	24	2	1.6 × 10^5 cts.	CC1=C(/C=C/C(C)=C/C=C/C(C)=C/CO)C(C)(C)CCC1 [retinol, all-trans retinol]	–	no discernible T cell activation	maintain a higher state of viability than anti-CD3e "only" stimulation	growing exponentially
